# From patent publication US7943140B2, “Compositions and methods for the treatment and prophylaxis of multiple strains and subtypes of HIV-1” (priority 2006, dated 2011)
# Marks after values point to notes of the source that are not given here.
# Tests used:
# [1] = tested on: HIV-1 Tat (rTat, AA 1-72 variants); test: Anti-Tat serum antibody titer (ELISA on rTat) after immunization of mice; format: in vivo, mouse; settings: for Titer, GMT: mice, 1.0 mg/mouse IP; for 4 week anti-Tat titer GMT: Mouse
# Method: (§1) Immunogens prepared as described in Example 1 were taken up in buffered saline and injected IP in mice and rats, and SC in rabbits. Unless otherwise stated mice were immunized IP with 1 mg of Immunogen at Day 0 and Week 2 and serums were obtained at Week 4 for titration. Other regimens and species were as noted in the figures.
# (§2) Serums were assayed to determine anti-Tat titers by conventional ELISA methods. Briefly, Maxisorp Immuno plates were coated with 2 ng/well rTat and incubated at 22° C. for 1 hour or 4° C. overnight. After thorough washing with 0.1% triton X 100 buffer, blocking with 1% bovine serum albumin (BSA) and rewashing, serum dilutions were applied and incubated at 22° C. for 1 hour. After incubation, the plates were thoroughly washed with triton-X 100 buffer again and 1/10,000 goat anti-mouse IgG-horseradish peroxidase (HRP) conjugate (or the appropriate reagent for rat or rabbit) was applied. The plates were then incubated for 1 hour at 22° C. then washed thoroughly and developed with ABTS for 45 minutes at room temperature on a shaker table. Absorbance was measured at 405 nm. Control wells lacking serum were measured and the titration endpoint was the reciprocal of the […] dilution with an OD greater than mean+8 SDs.
# (§3) Animals were purchased from Harlan Laboratories and acclimated at Molecular Diagnostic Services, Inc., for at least one week before immunization. Both BALBc and C57BL6/BALBc F1 mice were used. Lewis rats were used as indicated. Immunogens prepared as described in Example 1 were taken up in buffered saline and injected IP in mice and rats, and administered subcutaneously in Cynomolgous macaque. Animals were immunized with immunogen at Day 0 and Week 2 (day 14) and serums were obtained at Week 4 (day 28) for titration. Doses/animal are noted in Table 4, along with their anti-Tat titers.
# Animals were purchased from Harlan Laboratories and acclimated at Molecular Diagnostic Services, Inc., for at least one week before immunization. Both BALBc and C57BL6/BALBc F1 mice were used. Pam2C-capped immunogens prepared as described in Example 1 were taken up in buffered saline and injected IP. Mice were immunized with 3 injections of 1.0 mg/mouse Pam2C-capped immunogen with titrations before first boost and 2 weeks after each boost according to Table 5.
# [2] = tested on: HIV-1 Tat (rTat, AA 1-72 variants); test: Anti-Tat serum antibody titer (ELISA on rTat) after immunization of rats; format: in vivo, rat; settings: for GMT: rats, week 5, against rTat REK, FIG. 11; for 4 week anti-Tat titer GMT: Rat
# Method: as §1, §2, §3
# Three rats per group were immunized with a different dosage per group of a mixture of all of the experimental immunogens encompassed by the formula Pam3[…] -S-V-D-P-(R/K/N/S)-L-(E/D)-P-W-(K/N)-H-P-G-S-amide (SEQ ID NO: 63); Tat amino acid residue 7, 9, and 12 “wobbles”) with a polar charged sequence flanked by the linkers of the Pam3C (i.e., -S-K-K-K-K-S-). This immunogen is referred to as “TUTI-K4”. Each rat was administered a dose of either 0.1 mg TUTI-K4, or 1 mg TUTI-K4 or 10 mgs TUTI-K4 at day 0. Each rat was boosted with the same dose at week 3. The serum antibody titers for each rat were measured against the full length recombinant Tat (AA 1-72) REK variant protein.
# [3] = tested on: full length recombinant Tat; test: Tat depletion assay (rat immune serum on Protein A beads, sandwich ELISA); format: binding, HIV-1; settings: said to be associated with the week 5 titers at all doses (0.1, 1, 10 mg)
# Method: Classical techniques to measure Tat depletion could not be used due to the lack of a membrane that retained antibody but permitted rTat diffusion. Briefly, this assay employs beads coated with antibody which are exposed to rTat and incubated. The antibody binds the Tat, depending upon the amount of Tat in solution. This assay thus measures how well the antibodies in the serum deplete the quantity of full length recombinant Tat.
# Control: Normal rat serum not-immunized with HIV-1 Tat B cell epitopes (10% or 1%) was bound to Protein A beads and washed.
# Samples: IgG of 10% and 1% serum of the immunized rat were bound to Protein A beads and washed. Undiluted serum has an anti-Tat titer of 1,000,000, as determined according to the method described in Example 3.
# Both the Protein A beads of control and of samples were then incubated at room temperature for 30 minutes with a rTat solution. After centrifugation, the levels of Tat in supernatant were measured with a sandwich ELISA. The free Tat after exposure to 10% or 1% immune serum protein A coated beads was expressed as a percentage of the free Tat after exposure to 10% or 1% normal […] serum protein A coated beads, respectively.
# HIV-1 Tat (rTat) = test: Anti-Tat serum antibody titer (ELISA on rTat) after immunization of Cynomolgous macaque; format: in vivo; settings: 10.0 mg/animal subcutaneously at Day 0 and Week 2
# Method: as §2
# as §3, with “Animals were immunized with immunogen at Day 0 and Week 2 (day 14) and serums were obtained at Week 4 (day 28) for titration. Doses/animal are noted in Table 4, along with their anti-Tat titers.” left out
# [4] = Toxicity of immunogen dose in mice; format: in vivo; settings: Mouse; 10.0 mg/animal (400 mg/kg)
# Description: as §3
# [5] = 1.0 mg/animal IP at Day 0 and Week 2
substance,measurement,setting,value
Pam2C-SSQYIKANSKFIGITELSVDP-(R/K/N/S)-L-(E/D)-P-W-(K/N)-H-P-G-S-amide [Pam2-QYIK-TEP1],"Titer, GMT","[1]; prime boost D0, W2, W4, bleed week 2","140,000"
same,"Titer, GMT","[1]; prime boost D0, W2, W4, bleed week 4","950,000"
same,"Titer, GMT","[1]; prime boost D0, W2, W4, bleed week 6","750,000"
same,"Titer, GMT","[1]; prime boost D0, W3, W6, bleed week 3","160,000"
same,"Titer, GMT","[1]; prime boost D0, W3, W6, bleed week 5","930,000"
same,"Titer, GMT","[1]; prime boost D0, W3, W6, bleed week 8","3,300,000"
same,"Titer, GMT","[1]; prime boost D0, W4, W8, bleed week 4","70,000"
same,"Titer, GMT","[1]; prime boost D0, W4, W8, bleed week 6","400,000"
same,"Titer, GMT","[1]; prime boost D0, W4, W8, bleed week 10","3,000,000"
Pam3C-SKKKKSQYIKANSKFIGITEL -S-V-D-P-(R/K/N/S)-L-(E/D)-P-W-(K/N)-H-P-G-S-amide [TUTI-K4],GMT,[2]; 0.1 mg at day 0 and week 3,"about 500,000"
same,GMT,[2]; 1 mg at day 0 and week 3,"about 1,000,000"
same,GMT,[2]; 10 mg at day 0 and week 3,"about 1,000,000"
same,reduction of free Tat levels,[3],greater than 99%
Pam3C-SSQYIKANSKFIGITELSVDP-(R/K/N/S)-L-(E/D)-P-W-(K/N)-H-P-G-S-amide [Pam3-QYIK-TEP1],4 week anti-Tat titer GMT,[1]; [5],"120,000*"
same,4 week anti-Tat titer GMT,[1]; 3.0 mg/animal IP at Day 0 and Week 2,"220,000"
same,geometric mean antibody titers in serum,"[1]; single mouse, on all eight rTat (AA 1-72) immunodominant epitope variants, FIG. 2","> 100,000"
same,4 week anti-Tat titer GMT,[2]; [5],"170,000"
same,4 week anti-Tat titer GMT,[2]; 10.0 mg/animal IP at Day 0 and Week 2,"460,000"
same,antibody titers (GMT) in serum,"[2]; single rat, prime day 0, boosts at 3 and 6 weeks, bleed at 8 weeks, on all eight rTat (AA1-72) variants, FIG. 9","> 1,000,000"
same,4 week anti-Tat titer GMT,HIV-1 Tat (rTat),"900,000"
same,toxicity,[4],Lethal**
